{"source": "patent US8703156B2", "about": "“Liquid formulation for deferiprone with palatable taste” (Apotex Technologies Inc., priority 2008, dated 2014)", "assay": "degradation of Aspartame following 2 months storage", "type": "physicochemical", "conditions": "pH below 3.4; confirmed by degradation following 2 months storage", "excerpt": "The sweetener was changed to Aspartame. After another round of taste testing the formulation with 10 g/L of Aspartame became the most acceptable formulation in terms of taste tolerability, but Aspartame is unstable at pH below 3.4 and this was confirmed by testing the degradation of Aspartame following 2 months storage.", "note": "Peptide text beside a SMILES is read from it.", "data": [{"molecule": "COC(=O)[C@H](Cc1ccccc1)NC(=O)[C@@H](N)CC(=O)O", "note": "[Aspartame] (HELM PEPTIDE1{D.F.[CO[*:1]]}$$$$V2.0)", "values": [{"measurement": "stability of Aspartame", "value": "unstable"}]}]}
